The values that follow come from patent US11072741B2, “Optically anisotropic layer, method for producing the optically anisotropic layer, a laminate, polarizing plate, display device, liquid crystal compound, method for producing the liquid crystal compound, and carboxylic acid compound” (FUJIFILM Corporation, priority 2014, dated 2021).

Data set [1] can be described thus: Evaluation of phase transition temperature by polarizing microscope. The data set is classed as physicochemical. Particulars: for TNi(° C.) Isotropic Phase Transition Point / Tsm—N(° C.) Sm—N Transition Point: during temperature increase; for Phase Transition Temperature Evaluation of Decrease: versus comparative compound with the same Ar and side chain portion of Formula (Ia). An excerpt: Here, the temperature at which the compound transitions from the smectic phase to the nematic phase may be easily measured by observation of the composition employing polarized light microscopy. For example, in the nematic phase, a schlieren texture specific to the nematic phase is observed, while the texture transitions to a focal conic fan texture in a smectic A phase. Therefore, the phase transition temperature can be measured by observing the textures with a polarizing microscope while increasing or decreasing the temperature.
The phase transition temperatures of the synthesized liquid crystal compounds of the Examples and Comparative Examples were observed using a polarizing microscope to evaluate the degrees of temperature decrease. Specifically, the compounds of the Examples were compared to the compounds of the Comparative Examples, which have different structures for the side chain portions thereof. That is, the phase transition temperature of a compound of a Comparative Example having Ar (the aromatic ring at the center of General Formula 1) in common with the Examples and a side chain portion represented by Formula (Ia) below was used as a reference. Evaluations of A through C were assigned according to the degree of temperature decrease from the reference phase transition temperature.
(§1) For example, compound (I-1) and (I-2) were compared to Comparative Compound (Ia-1), and Compound (III-3) was compared to Comparative Compound (IIIa-3). The evaluation was carried out based on the following criteria.
A: decrease in melting point or Sm-N (smectic-nematic) transition temperature is 20° C. or greater
B: decrease in melting point or Sm-N (smectic-nematic) transition temperature is 5° C. or greater and less than 20° C.
C: decrease in melting point or Sm-N (smectic-nematic) transition temperature is less than 5° C.
With respect to the phase transition temperature, the numerical value in parentheses represents the numerical value during temperature decrease, and other numerical values represent a numerical value during temperature increase.

A short description of data set [2]: Measurement and evaluation of solubility in MEK and CPN. The data set is classed as physicochemical. To be noted: for Solubility CPN wt %: cyclopentanone; for Solubility CPN wt % / Solubility MEK wt %: room temperature, visual observation, 5 wt % increments; for Solubility MEK wt %: methyl ethyl ketone; for Solubility Evaluation: versus comparative compound with the same Ar and side chain portion of Formula (Ia). As to the method:
Solubility measurements of the synthesized liquid crystal compounds were conducted by the following method. 50 mg of each compound was weighted into a 1.5 mL sample bottle, and solvent was added until the solid component became 40 wt % (75 mg). The solubility was determined to be 40 wt % if clear under visual observation after shaking well manually at room temperature. If undissolved residue was present, solvent was added such that the solid component became 35 wt % (+18 mg). The solubility was determined to be 35 wt % if clear under visual observation after shaking well manually at room temperature. If undissolved residue was present, solvent was added such that the solid component became 30 wt %. Similar operations were performed in increments of 5 wt %, and repeated until the solid component became 5 wt %. If undissolved residue was present, the solubility was determined to be less than 5 wt % (<5 wt %), and measurements were completed. MEK (methyl ethyl ketone) and CPN (cyclopentanone) were utilized as solvents for measuring solubility.
The measured values of solubility were evaluated. The evaluations were conducted by using solubility of a compound of a Comparative Example having Ar (the aromatic ring at the center of General Formula 1) in common with the Examples and a side chain portion represented by Formula (Ia) as a reference, in a manner similar to that in the evaluation of the phase transition temperature. Evaluations of A through C were assigned according to the degree of improvement in solubility from the reference solubility.
as §1
A: solubility improved twofold or greater in plural solvents or a single solvent
B: solubility was the same or improved up to twofold in plural solvents or a single solvent
C: no improvement in solubility in plural solvents or a single solvent

Take `C=C(C)C(=O)OCCNC(=O)OCCc1ccc(OC(=O)[C@H]2CC[C@H](C(=O)Oc3ccc(OC(=O)[C@H]4CC[C@H](C(=O)Oc5ccc(CCOC(=O)NCCOC(=O)C(=C)C)cc5)CC4)c4c3SC(=C(C#N)C#N)S4)CC2)cc1` [Compound I-9]: the melting point stood at 130 °C. For the same compound, in data set [1], the “TNi(° C.) Isotropic Phase Transition Point” value was 220 °C; the “Tsm—N(° C.) Sm—N Transition Point” value is 158 °C; the “Phase Transition Temperature Evaluation of Decrease” value is “B (decrease in melting point or Sm-N (smectic-nematic) transition temperature is 5 °C or greater and less than 20° C.)”. Also, in data set [2], the “Solubility CPN wt %” value is 20 wt %, the “Solubility MEK wt %” value is listed as 5 wt % and the “Solubility Evaluation” value was “B (solubility was the same or improved up to twofold in plural solvents or a single solvent)”.
Compound `C=CCCCCCCCCC(=O)OCCc1ccc(OC(=O)[C@H]2CC[C@H](C(=O)Oc3ccc(OC(=O)[C@H]4CC[C@H](C(=O)Oc5ccc(CCOC(=O)CCCCCCCCC=C)cc5)CC4)c4c3SC(=C(C#N)C#N)S4)CC2)cc1` [Compound I-14] gave a melting point of 126 °C. In data set [1], the “TNi(° C.) Isotropic Phase Transition Point” value was determined as 185 °C; the “Tsm—N(° C.) Sm—N Transition Point” value amounted to 179 °C; the “Phase Transition Temperature Evaluation of Decrease” value is “B (decrease in melting point or Sm-N (smectic-nematic) transition temperature is 5 °C or greater and less than 20° C.)”. In data set [2], the “Solubility CPN wt %” value is recorded as 25 wt %, the “Solubility MEK wt %” value was 10 wt % and the “Solubility Evaluation” value is reported as “A (solubility improved twofold or greater in plural solvents or a single solvent)”.
In turn, `N#CC(C#N)=C1Sc2c(OC(=O)[C@H]3CC[C@H](C(=O)Oc4ccc(CCOC(=O)CCCCCCCCC5CO5)cc4)CC3)ccc(OC(=O)[C@H]3CC[C@H](C(=O)Oc4ccc(CCOC(=O)CCCCCCCCC5CO5)cc4)CC3)c2S1` (stereo partly shown) [Compound I-15] displayed a melting point of 127 °C. In addition, in data set [1], the “TNi(° C.) Isotropic Phase Transition Point” value is 190 °C and the “Phase Transition Temperature Evaluation of Decrease” value was “A (decrease in melting point or Sm-N (smectic-nematic) transition temperature is 20 °C or greater)”. In data set [2], the “Solubility CPN wt %” value stood at 25 wt %, the “Solubility MEK wt %” value is listed as 10 wt % and the “Solubility Evaluation” value is given as “A (solubility improved twofold or greater in plural solvents or a single solvent)”.
As to `C=CC(=O)OCCCCOC(=O)Cc1ccc(OC(=O)[C@H]2CC[C@H](C(=O)Oc3ccc(OC(=O)[C@H]4CC[C@H](C(=O)Oc5ccc(CC(=O)OCCCCOC(=O)C=C)cc5)CC4)c4c3SC(=C(C#N)C#N)S4)CC2)cc1` [II-8], the melting point came to 102 °C. In addition, in data set [1], the “TNi(° C.) Isotropic Phase Transition Point” value was found to be 176 °C, the “Tsm—N(° C.) Sm—N Transition Point” value came to 138 °C and the “Phase Transition Temperature Evaluation of Decrease” value is “A (decrease in melting point or Sm-N (smectic-nematic) transition temperature is 20 °C or greater)”. For the same compound, in data set [2], the “Solubility CPN wt %” value is given as 20 wt %, the “Solubility MEK wt %” value was found to be 10 wt % and the “Solubility Evaluation” value is reported as “A (solubility improved twofold or greater in plural solvents or a single solvent)”.
Consider `C=CC(=O)OCCOC(=O)Cc1ccc(OC(=O)[C@H]2CC[C@H](C(=O)Oc3ccc(OC(=O)[C@H]4CC[C@H](C(=O)Oc5ccc(CC(=O)OCCOC(=O)C=C)cc5)CC4)c4c3SC(=C(C#N)C#N)S4)CC2)cc1` [II-9], for which the melting point was found to be 116 °C. In data set [1], the “TNi(° C.) Isotropic Phase Transition Point” value came out at 210 °C, the “Tsm—N(° C.) Sm—N Transition Point” value was determined as 122 °C and the “Phase Transition Temperature Evaluation of Decrease” value is “A (decrease in melting point or Sm-N (smectic-nematic) transition temperature is 20 °C or greater)”. Further, in data set [2], the “Solubility CPN wt %” value is reported as 15 wt %, the “Solubility MEK wt %” value came out at 5 wt % and the “Solubility Evaluation” value is given as “B (solubility was the same or improved up to twofold in plural solvents or a single solvent)”.
With `C=CC(=O)OCCOC(=O)CCC(=O)OCCc1ccc(OC(=O)[C@H]2CC[C@H](C(=O)Oc3ccc(OC(=O)[C@H]4CC[C@H](C(=O)Oc5ccc(CCOC(=O)CCC(=O)OCCOC(=O)C=C)cc5)CC4)c4c3SC(=C(C#N)C(=O)OC)S4)CC2)cc1` [III-3], the melting point came to 100 °C. In data set [1], the “TNi(° C.) Isotropic Phase Transition Point” value was found to be 118 °C and the “Phase Transition Temperature Evaluation of Decrease” value is “A (decrease in melting point or Sm-N (smectic-nematic) transition temperature is 20 °C or greater)”. Also, in data set [2], the “Solubility CPN wt %” value was 20 wt %, the “Solubility MEK wt %” value amounted to 10 wt % and the “Solubility Evaluation” value was “A (solubility improved twofold or greater in plural solvents or a single solvent)”.
Compound `C=CC(=O)OCCCCCCOc1ccc(OC(=O)[C@H]2CC[C@H](C(=O)Oc3ccc(OC(=O)[C@H]4CC[C@H](C(=O)Oc5ccc(OCCCCCCOC(=O)C=C)cc5)CC4)c4c3SC(=C(C#N)C(=O)OC)S4)CC2)cc1` [IIIa-3] displayed a melting point of 131 °C. In data set [1], the “TNi(° C.) Isotropic Phase Transition Point” value came out at 240 °C. Besides, in data set [2], the “Solubility CPN wt %” value was determined as 10 wt % and the “Solubility MEK wt %” value is recorded as less than 5 wt %.
For `C=CC(=O)OCCCCCCOc1ccc(OC(=O)[C@H]2CC[C@H](C(=O)Oc3ccc(OC(=O)[C@H]4CC[C@H](C(=O)Oc5ccc(OCCCCCCOC(=O)C=C)cc5)CC4)c4c3SC(=C(C#N)C(=O)OCCC(C)(C)O)S4)CC2)cc1` [IIIa-7], in that order: 106 °C, 157 °C, 40 wt % and 20 wt %.
For the compound `C=CC(=O)OCCOC(=O)CCC(=O)OCCc1ccc(OC(=O)[C@H]2CC[C@H](C(=O)Oc3cc(C)c(OC(=O)[C@H]4CC[C@H](C(=O)Oc5ccc(CCOC(=O)CCC(=O)OCCOC(=O)C=C)cc5)CC4)c4c3SC(=C(C#N)C#N)S4)CC2)cc1` [IV-1], the melting point was determined as 148 °C. In addition, in data set [1], the “TNi(° C.) Isotropic Phase Transition Point” value stood at 172 °C and the “Phase Transition Temperature Evaluation of Decrease” value was “A (decrease in melting point or Sm-N (smectic-nematic) transition temperature is 20 °C or greater)”. Further, in data set [2], the “Solubility CPN wt %” value amounted to 35 wt %, the “Solubility MEK wt %” value is on record as 15 wt % and the “Solubility Evaluation” value was “A (solubility improved twofold or greater in plural solvents or a single solvent)”.
On to `C=CC(=O)OCCOC(=O)CCC(=O)OCCc1ccc(OC(=O)[C@H]2CC[C@H](C(=O)Oc3cc(OCC)c(OC(=O)[C@H]4CC[C@H](C(=O)Oc5ccc(CCOC(=O)CCC(=O)OCCOC(=O)C=C)cc5)CC4)c4c3SC(=C(C#N)C#N)S4)CC2)cc1` [IV-10], for which the melting point stood at 95 °C. Further, the “TNi(° C.) Isotropic Phase Transition Point” value in data set [1] is 99 °C. Also, in data set [2], the “Solubility CPN wt %” value is listed as 40 wt % and the “Solubility MEK wt %” value was determined as 40 wt %.
As to `C=CC(=O)OCCCCCCOc1ccc(OC(=O)[C@H]2CC[C@H](C(=O)Oc3cc(C)c(OC(=O)[C@H]4CC[C@H](C(=O)Oc5ccc(OCCCCCCOC(=O)C=C)cc5)CC4)c4c3SC(=C(C#N)C#N)S4)CC2)cc1` [IVa-1], the melting point stood at 189 °C. Moreover, in data set [1], the “TNi(° C.) Isotropic Phase Transition Point” value is >250 ^ ° C. Besides, in data set [2], the “Solubility CPN wt %” value is 10 wt % and the “Solubility MEK wt %” value was less than 5 wt %.
Take `C=CC(=O)OCCCCCCOc1ccc(OC(=O)[C@H]2CC[C@H](C(=O)Oc3ccc(OC(=O)[C@H]4CC[C@H](C(=O)Oc5ccc(OCCCCCCOC(=O)C=C)cc5)CC4)c4c3SC(=C(C#N)C#N)S4)CC2)cc1` [Ia-1]: the melting point worked out at 148 °C. Besides, in data set [1], the “TNi(° C.) Isotropic Phase Transition Point” value was >210 ^ ° C and the “Tsm—N(° C.) Sm—N Transition Point” value came out at 183 °C. For the same compound, in data set [2], the “Solubility CPN wt %” value was found to be 10 wt % and the “Solubility MEK wt %” value is given as less than 5 wt %.
